Assay results reported in PubChem BioAssay AID1963959 (Molecular Pharmacology Branch, DTP, NCI, 2024).

Tested on: T-47D spheroids with HUVEC/MSC, viability
Test: Anticancer human tumor T-47D cell line growth inhibition [PI3K];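 also: spheroids exposed to agents for seven days before reading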;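 as to viability, T/C: percent of DMSO vehicle control luminescence so 100% = untreated growth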
Conditions: for IC50: curve of first compound; for viability, T/C: stronger effect = lower value; active = viability on the fitted dose curve at most 10% of control; inactive = the rest
Outline: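 Agents were dosed from a top concentration near clinical Cmax (otherwise 10 microM) in half-log decrements, alone or combined with PI3K inhibitors. The spheroids contain tumor cells plus endothelial (HUVEC) and MSC stroma; viability is measured.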

[1] = second compound 0.0316 µM, first compound 0.0316 µM
[2] = second compound 0.0316 µM, first compound 0.1 µM
[3] = second compound 0.1 µM, first compound 0.0316 µM
[4] = second compound 0.1 µM, first compound 0.1 µM
[5] = second compound 0.316 µM, first compound 0.0316 µM
[6] = second compound 0.316 µM, first compound 0.1 µM
[7] = second compound 1 µM, first compound 0.0316 µM
[8] = second compound 1 µM, first compound 0.1 µM
[9] = second compound 3.16 µM, first compound 0.0316 µM
[10] = second compound 3.16 µM, first compound 0.1 µM
[11] = second compound 10 µM, first compound 0.0316 µM
[12] = second compound 10 µM, first compound 0.1 µM
[13] = second compound 0.0316 µM, first compound 0.316 µM
[14] = second compound 0.0316 µM, first compound 1 µM
[15] = second compound 0.0316 µM, first compound 3.16 µM
[16] = second compound 0.0316 µM, first compound 10 µM
[17] = second compound 0.1 µM, first compound 0.316 µM
[18] = second compound 0.1 µM, first compound 1 µM
[19] = second compound 0.1 µM, first compound 3.16 µM
[20] = second compound 0.1 µM, first compound 10 µM
[21] = second compound 0.316 µM, first compound 0.316 µM
[22] = second compound 0.316 µM, first compound 1 µM
[23] = second compound 0.316 µM, first compound 3.16 µM
[24] = second compound 0.316 µM, first compound 10 µM
[25] = second compound 1 µM, first compound 0.316 µM
[26] = second compound 1 µM, first compound 1 µM
[27] = second compound 1 µM, first compound 3.16 µM
[28] = second compound 1 µM, first compound 10 µM
[29] = second compound 3.16 µM, first compound 0.316 µM
[30] = second compound 3.16 µM, first compound 1 µM
[31] = second compound 3.16 µM, first compound 3.16 µM
[32] = second compound 3.16 µM, first compound 10 µM
[33] = second compound 10 µM, first compound 0.316 µM
[34] = second compound 10 µM, first compound 1 µM
[35] = second compound 10 µM, first compound 3.16 µM
[36] = second compound 10 µM, first compound 10 µM

CC(=O)c1c(C)c2cnc(Nc3ccc(N4CCNCC4)cn3)nc2n(C2CCCC2)c1=O + CC(Nc1ncnc2nc[nH]c12)c1cc2cccc(Cl)c2c(=O)n1-c1ccccc1
inactive: viability, T/C (second compound 0.0316 µM, first compound 0.000316 µM) 96% | viability, T/C (second compound 0.0316 µM, first compound 0.001 µM) 99% | viability, T/C (second compound 0.0316 µM, first compound 0.00316 µM) 100% | viability, T/C (second compound 0.0316 µM, first compound 0.01 µM) 91.2% | viability, T/C [1] 86.5% | viability, T/C [2] 71.3% | viability, T/C (second compound 0.1 µM, first compound 0.000316 µM) 91.2% | viability, T/C (second compound 0.1 µM, first compound 0.001 µM) 90.2% | viability, T/C (second compound 0.1 µM, first compound 0.00316 µM) 96.1% | viability, T/C (second compound 0.1 µM, first compound 0.01 µM) 73.3% | viability, T/C [3] 100% | viability, T/C [4] 83.6% | viability, T/C (second compound 0.316 µM, first compound 0.000316 µM) 92.8% | viability, T/C (second compound 0.316 µM, first compound 0.001 µM) 93.7% | viability, T/C (second compound 0.316 µM, first compound 0.00316 µM) 82% | viability, T/C (second compound 0.316 µM, first compound 0.01 µM) 90.6% | viability, T/C [5] 86.9% | viability, T/C [6] 84% | viability, T/C (second compound 1 µM, first compound 0.000316 µM) 80.1% | viability, T/C (second compound 1 µM, first compound 0.001 µM) 73.8% | viability, T/C (second compound 1 µM, first compound 0.00316 µM) 79.6% | viability, T/C (second compound 1 µM, first compound 0.01 µM) 89% | viability, T/C [7] 76.6% | viability, T/C [8] 80.6% | viability, T/C (second compound 3.16 µM, first compound 0.000316 µM) 81.2% | viability, T/C (second compound 3.16 µM, first compound 0.001 µM) 88.6% | viability, T/C (second compound 3.16 µM, first compound 0.00316 µM) 100% | viability, T/C (second compound 3.16 µM, first compound 0.01 µM) 85.1% | viability, T/C [9] 85.8% | viability, T/C [10] 69.8% | viability, T/C (second compound 10 µM, first compound 0.000316 µM) 88.4% | viability, T/C (second compound 10 µM, first compound 0.001 µM) 76.3% | viability, T/C (second compound 10 µM, first compound 0.00316 µM) 78% | viability, T/C (second compound 10 µM, first compound 0.01 µM) 70.8% | viability, T/C [11] 80.6% | viability, T/C [12] 65.2%
> 0.1 µM: IC50 (second compound 0.0316 µM) | IC50 (second compound 0.1 µM) | IC50 (second compound 0.316 µM) | IC50 (second compound 1 µM) | IC50 (second compound 3.16 µM) | IC50 (second compound 10 µM)

CCCS(=O)(=O)Nc1ccc(F)c(C(=O)c2c[nH]c3ncc(-c4ccc(Cl)cc4)cc23)c1F + CC(Nc1ncnc2nc[nH]c12)c1cc2cccc(Cl)c2c(=O)n1-c1ccccc1
> 10 µM: IC50 (second compound 0.0316 µM) | IC50 (second compound 0.1 µM) | IC50 (second compound 1 µM)
8.46 µM: IC50 (second compound 0.316 µM)
9.93 µM: IC50 (second compound 3.16 µM)
inactive: viability, T/C [1] 114% | viability, T/C [2] 98.7% | viability, T/C [13] 84.7% | viability, T/C [14] 98.4% | viability, T/C [15] 88.6% | viability, T/C [16] 53% | viability, T/C [3] 84.5% | viability, T/C [4] 96.1% | viability, T/C [17] 105% | viability, T/C [18] 84.8% | viability, T/C [19] 104% | viability, T/C [20] 52.1% | viability, T/C [5] 107% | viability, T/C [6] 87.7% | viability, T/C [21] 109% | viability, T/C [22] 83.8% | viability, T/C [23] 92% | viability, T/C [24] 42.9% | viability, T/C [7] 97.2% | viability, T/C [8] 106% | viability, T/C [25] 89.2% | viability, T/C [26] 112% | viability, T/C [27] 85.6% | viability, T/C [28] 50.3% | viability, T/C [9] 85.5% | viability, T/C [10] 104% | viability, T/C [29] 73.6% | viability, T/C [30] 84.8% | viability, T/C [31] 85.3% | viability, T/C [32] 49.8% | viability, T/C [11] 84.7% | viability, T/C [12] 82.8% | viability, T/C [33] 92.2% | viability, T/C [34] 72.7% | viability, T/C [35] 74.7% | viability, T/C [36] 48.2%
9.51 µM: IC50 (second compound 10 µM)

CNC(=O)c1ccc(N2C(=S)N(c3ccc(C#N)c(C(F)(F)F)c3)C(=O)C2(C)C)cc1F + CC(Nc1ncnc2nc[nH]c12)c1cc2cccc(Cl)c2c(=O)n1-c1ccccc1
> 10 µM: IC50 (second compound 0.0316 µM) | IC50 (second compound 0.1 µM) | IC50 (second compound 0.316 µM) | IC50 (second compound 1 µM) | IC50 (second compound 3.16 µM) | IC50 (second compound 10 µM)
inactive: viability, T/C [1] 117% | viability, T/C [2] 108% | viability, T/C [13] 96.2% | viability, T/C [14] 85.9% | viability, T/C [15] 97.1% | viability, T/C [16] 79.6% | viability, T/C [3] 101% | viability, T/C [4] 85.4% | viability, T/C [17] 114% | viability, T/C [18] 99.9% | viability, T/C [19] 95.4% | viability, T/C [20] 80.2% | viability, T/C [5] 89% | viability, T/C [6] 88% | viability, T/C [21] 84.2% | viability, T/C [22] 80.7% | viability, T/C [23] 92.3% | viability, T/C [24] 86.5% | viability, T/C [7] 93.7% | viability, T/C [8] 87.5% | viability, T/C [25] 78.1% | viability, T/C [26] 86% | viability, T/C [27] 91.7% | viability, T/C [28] 76.9% | viability, T/C [9] 88.5% | viability, T/C [10] 76.4% | viability, T/C [29] 86% | viability, T/C [30] 85.5% | viability, T/C [31] 95.2% | viability, T/C [32] 94% | viability, T/C [11] 96.8% | viability, T/C [12] 90.9% | viability, T/C [33] 84.3% | viability, T/C [34] 84.1% | viability, T/C [35] 98.3% | viability, T/C [36] 88.7%

Cn1cnc2c(F)c(Nc3ccc(Br)cc3Cl)c(C(=O)NOCCO)cc21 + CC(Nc1ncnc2nc[nH]c12)c1cc2cccc(Cl)c2c(=O)n1-c1ccccc1
inactive: viability, T/C (second compound 0.0316 µM, first compound 0.00949 µM) 104% | viability, T/C (second compound 0.0316 µM, first compound 0.03 µM) 93.4% | viability, T/C (second compound 0.0316 µM, first compound 0.0949 µM) 100% | viability, T/C (second compound 0.0316 µM, first compound 0.3 µM) 81% | viability, T/C (second compound 0.0316 µM, first compound 0.949 µM) 84.2% | viability, T/C (second compound 0.0316 µM, first compound 3 µM) 77.1% | viability, T/C (second compound 0.1 µM, first compound 0.00949 µM) 94.6% | viability, T/C (second compound 0.1 µM, first compound 0.03 µM) 86% | viability, T/C (second compound 0.1 µM, first compound 0.0949 µM) 87.8% | viability, T/C (second compound 0.1 µM, first compound 0.3 µM) 83.8% | viability, T/C (second compound 0.1 µM, first compound 0.949 µM) 93.2% | viability, T/C (second compound 0.1 µM, first compound 3 µM) 102% | viability, T/C (second compound 0.316 µM, first compound 0.00949 µM) 73.4% | viability, T/C (second compound 0.316 µM, first compound 0.03 µM) 83.2% | viability, T/C (second compound 0.316 µM, first compound 0.0949 µM) 79.7% | viability, T/C (second compound 0.316 µM, first compound 0.3 µM) 83.9% | viability, T/C (second compound 0.316 µM, first compound 0.949 µM) 82% | viability, T/C (second compound 0.316 µM, first compound 3 µM) 75.2% | viability, T/C (second compound 1 µM, first compound 0.00949 µM) 96.9% | viability, T/C (second compound 1 µM, first compound 0.03 µM) 104% | viability, T/C (second compound 1 µM, first compound 0.0949 µM) 86.1% | viability, T/C (second compound 1 µM, first compound 0.3 µM) 94.8% | viability, T/C (second compound 1 µM, first compound 0.949 µM) 75% | viability, T/C (second compound 1 µM, first compound 3 µM) 79.3% | viability, T/C (second compound 3.16 µM, first compound 0.00949 µM) 79.3% | viability, T/C (second compound 3.16 µM, first compound 0.03 µM) 94.9% | viability, T/C (second compound 3.16 µM, first compound 0.0949 µM) 85.2% | viability, T/C (second compound 3.16 µM, first compound 0.3 µM) 95.5% | viability, T/C (second compound 3.16 µM, first compound 0.949 µM) 80.2% | viability, T/C (second compound 3.16 µM, first compound 3 µM) 82.5% | viability, T/C (second compound 10 µM, first compound 0.00949 µM) 78.3% | viability, T/C (second compound 10 µM, first compound 0.03 µM) 82.2% | viability, T/C (second compound 10 µM, first compound 0.0949 µM) 71.3% | viability, T/C (second compound 10 µM, first compound 0.3 µM) 69.3% | viability, T/C (second compound 10 µM, first compound 0.949 µM) 80.9% | viability, T/C (second compound 10 µM, first compound 3 µM) 79.9%
> 3 µM: IC50 (second compound 0.0316 µM) | IC50 (second compound 0.1 µM) | IC50 (second compound 0.316 µM) | IC50 (second compound 1 µM) | IC50 (second compound 3.16 µM) | IC50 (second compound 10 µM)
